Source: patent US20050261201A1, “Method of reducing C-reactive protein using growth hormone secretagogues” (Rejuvenon Corporation, priority 2004, published 2005)

Test system: human CRP
Assay: CRP serum levels in CRP transgenic mice (ELISA)
Format: in vivo, C57BL/6J congenic CRP transgenic mice that express human CRP
Details: daily oral gavage for 14 days, serum at Day 15, vs saline vehicle, n=10
Method: The experiment was conducted to determine the effect of the growth hormone secretagogue RC-1141 on CRP serum levels. The compound RC-1141 was tested in C57BL/6J congenic CRP transgenic mice that express human CRP.
The establishment of a breeding colony of CRPtg C57BL/6J congenic mice has been described in Szalai, A. et al., “Human C-Reactive Protein is Protective Against Fatal Streptococcus pneumoniae Infection in Transgenic Mice,” J. Immunol. 155:2557-2563 (1995), the entire content of which is hereby incorporated by reference. The breeding colony was established by mating transgenic founder males with normal female C57BL/6J mice. The normal female C57BL/6J mice were obtained from Charles River Laboratories (Boston, Mass.). Transgenic founders were obtained from Dr. Ulrich Ruther (Institut für Molekularbiologie, Medizinische Hochschule, Hannover, Germany), and were descendants of transgenic mice originally described by Ciliberto, G., R. Arcone, E. F. Wagner, U. Rüther, “Inducible and tissue-specific expression of human C-reactive protein in transgenic mice” EMBO J, 6:4017 (1987), the entire content of which is hereby incorporated by reference. […]
CRP serum levels were measured using ELISA. […]
Concentration was determined by the ELISA described above. […]

## CN(C(=O)/C=C/CC1(N)CCC1)[C@H](Cc1ccc(-c2ccccc2)cc1)C(=O)N(C)[C@H](Cc1ccccc1)C(=O)N1CCC(O)CC1 [RC-1141, (2E)-4-(1-aminocyclobutyl)but-2-enoic acid N-((1R)-1-{N-[(1R)-1-benzyl-2-(4-hydroxypiperidin-1-yl)-2-oxoethyl]-N-methylcarbomoyl}-2-(biphenyl-4-yl)ethyl)-N-methylamide]
5 mg/kg body weight (low dose)
  CRP serum levels: significant decrease
10 mg/kg body weight (high dose)
  CRP serum levels: significant decrease
